Test results published in PubChem BioAssay AID1259407 (Chemical Carcinogenesis Research Information System (CCRIS), 2018).
Calls of active or inactive are those of the source. No rule for the calls is given here.

Tested on: CCRIS mutagenicity, Ames/micronucleus/aberration tests
Test: CCRIS mutagenicity studies
[1] = Test System: AMES SALMONELLA TYPHIMURIUM, Strain/Indicator: TA98, Metabolic Activation: NONE, Method: STANDARD PLATE
[2] = Test System: AMES SALMONELLA TYPHIMURIUM, Strain/Indicator: TA100, Metabolic Activation: NONE, Method: STANDARD PLATE
[3] = Test System: AMES SALMONELLA TYPHIMURIUM, Strain/Indicator: TA97, Metabolic Activation: NONE, Method: PREINCUBATION
[4] = Test System: AMES SALMONELLA TYPHIMURIUM, Strain/Indicator: TA98, Metabolic Activation: NONE, Method: PREINCUBATION
[5] = Test System: AMES SALMONELLA TYPHIMURIUM, Strain/Indicator: TA1535, Metabolic Activation: NONE, Method: PREINCUBATION

Measured: mutagenic call

CC(S)C(=O)NCC(=O)O (configuration not stated)
inactive: [1] inactive; negative | Test System: AMES SALMONELLA TYPHIMURIUM, Strain/Indicator: TA98, Metabolic Activation: RAT, LIVER, S-9, AROCLOR 1254, Method: STANDARD PLATE inactive; negative | [2] inactive; negative | Test System: AMES SALMONELLA TYPHIMURIUM, Strain/Indicator: TA100, Metabolic Activation: RAT, LIVER, S-9, AROCLOR 1254, Method: STANDARD PLATE inactive; negative | Test System: AMES SALMONELLA TYPHIMURIUM, Strain/Indicator: TA1535, Metabolic Activation: NONE, Method: STANDARD PLATE inactive; negative | Test System: AMES SALMONELLA TYPHIMURIUM, Strain/Indicator: TA1535, Metabolic Activation: RAT, LIVER, S-9, AROCLOR 1254, Method: STANDARD PLATE inactive; negative | Test System: AMES SALMONELLA TYPHIMURIUM, Strain/Indicator: TA1537, Metabolic Activation: NONE, Method: STANDARD PLATE inactive; negative | Test System: AMES SALMONELLA TYPHIMURIUM, Strain/Indicator: TA1537, Metabolic Activation: RAT, LIVER, S-9, AROCLOR 1254, Method: STANDARD PLATE inactive; negative | Test System: AMES SALMONELLA TYPHIMURIUM, Strain/Indicator: TA1538, Metabolic Activation: NONE, Method: STANDARD PLATE inactive; negative | Test System: AMES SALMONELLA TYPHIMURIUM, Strain/Indicator: TA1538, Metabolic Activation: RAT, LIVER, S-9, AROCLOR 1254, Method: STANDARD PLATE inactive; negative

O=CNc1ccccc1
inactive: Test System: AMES SALMONELLA TYPHIMURIUM, Strain/Indicator: TA97, Metabolic Activation: HAMSTER, LIVER, S-9, AROCLOR 1254 (10 OR 30%), Method: PREINCUBATION inactive; negative | [3] inactive; negative | Test System: AMES SALMONELLA TYPHIMURIUM, Strain/Indicator: TA97, Metabolic Activation: RAT, LIVER, S-9, AROCLOR 1254 (10 OR 30%), Method: PREINCUBATION inactive; negative | Test System: AMES SALMONELLA TYPHIMURIUM, Strain/Indicator: TA98, Metabolic Activation: HAMSTER, LIVER, S-9, AROCLOR 1254 (10 OR 30%), Method: PREINCUBATION inactive; negative | [4] inactive; negative | Test System: AMES SALMONELLA TYPHIMURIUM, Strain/Indicator: TA98, Metabolic Activation: RAT, LIVER, S-9, AROCLOR 1254 (10 OR 30%), Method: PREINCUBATION inactive; negative | Test System: AMES SALMONELLA TYPHIMURIUM, Strain/Indicator: TA100, Metabolic Activation: HAMSTER, LIVER, S-9, AROCLOR 1254 (10 OR 30%), Method: PREINCUBATION inactive; negative | Test System: AMES SALMONELLA TYPHIMURIUM, Strain/Indicator: TA100, Metabolic Activation: NONE, Method: PREINCUBATION inactive; negative | Test System: AMES SALMONELLA TYPHIMURIUM, Strain/Indicator: TA100, Metabolic Activation: RAT, LIVER, S-9, AROCLOR 1254 (10 OR 30%), Method: PREINCUBATION inactive; negative | Test System: AMES SALMONELLA TYPHIMURIUM, Strain/Indicator: TA1535, Metabolic Activation: HAMSTER, LIVER, S-9, AROCLOR 1254 (10 OR 30%), Method: PREINCUBATION inactive; negative | [5] inactive; negative | Test System: AMES SALMONELLA TYPHIMURIUM, Strain/Indicator: TA1535, Metabolic Activation: RAT, LIVER, S-9, AROCLOR 1254 (10 OR 30%), Method: PREINCUBATION inactive; negative

O=C(O)[C@H]1OC(Oc2ccc3cc4ccc5cccc6ccc(c3c2)c4c56)[C@H](O)[C@@H](O)[C@@H]1O (some centres not stated)
inactive: [4] inactive; negative | Test System: AMES SALMONELLA TYPHIMURIUM, Strain/Indicator: TA98, Metabolic Activation: RAT, LUNG, S-9, Method: PREINCUBATION inactive; negative

O=C1C(Cl)=C(Cl)C(=O)c2ccccc21
active: Test System: AMES SALMONELLA TYPHIMURIUM, Strain/Indicator: TA97, Metabolic Activation: RAT, LIVER, S-9, PHENOBARBITAL AND 5,6-BENZOFLAVONE, Method: PREINCUBATION active; positive | Test System: AMES SALMONELLA TYPHIMURIUM, Strain/Indicator: TA100, Metabolic Activation: RAT, LIVER, S-9, PHENOBARBITAL AND 5,6-BENZOFLAVONE, Method: PREINCUBATION active; positive | Test System: AMES SALMONELLA TYPHIMURIUM, Strain/Indicator: TA102, Metabolic Activation: NONE, Method: PREINCUBATION active; positive | Test System: AMES SALMONELLA TYPHIMURIUM, Strain/Indicator: TA102, Metabolic Activation: RAT, LIVER, S-9, PHENOBARBITAL AND 5,6-BENZOFLAVONE, Method: PREINCUBATION active; positive | Test System: AMES SALMONELLA TYPHIMURIUM, Strain/Indicator: TA104, Metabolic Activation: NONE, Method: PREINCUBATION active; positive | Test System: AMES SALMONELLA TYPHIMURIUM, Strain/Indicator: TA104, Metabolic Activation: RAT, LIVER, S-9, PHENOBARBITAL AND 5,6-BENZOFLAVONE, Method: PREINCUBATION active; positive | Test System: AMES SALMONELLA TYPHIMURIUM, Strain/Indicator: TA2637, Metabolic Activation: RAT, LIVER, S-9, PHENOBARBITAL AND 5,6-BENZOFLAVONE, Method: PREINCUBATION active; positive
inactive: [3] inactive; negative | [4] inactive; negative | Test System: AMES SALMONELLA TYPHIMURIUM, Strain/Indicator: TA98, Metabolic Activation: RAT LIVER S-9, PHENOBARBITAL AND BETA-NAPHTHOFLAVONE, Method: PREINCUBATION inactive; negative | Test System: AMES SALMONELLA TYPHIMURIUM, Strain/Indicator: TA98, Metabolic Activation: RAT, LIVER, S-9, PHENOBARBITAL AND 5,6-BENZOFLAVONE, Method: PREINCUBATION inactive; negative | Test System: AMES SALMONELLA TYPHIMURIUM, Strain/Indicator: TA100, Metabolic Activation: RAT LIVER S-9, PHENOBARBITAL AND BETA-NAPHTHOFLAVONE, Method: PREINCUBATION inactive; negative | [5] inactive; negative | Test System: AMES SALMONELLA TYPHIMURIUM, Strain/Indicator: TA1535, Metabolic Activation: RAT LIVER S-9, PHENOBARBITAL AND BETA-NAPHTHOFLAVONE, Method: PREINCUBATION inactive; negative | Test System: AMES SALMONELLA TYPHIMURIUM, Strain/Indicator: TA1535, Metabolic Activation: RAT, LIVER, S-9, PHENOBARBITAL AND 5,6-BENZOFLAVONE, Method: PREINCUBATION inactive; negative | Test System: AMES SALMONELLA TYPHIMURIUM, Strain/Indicator: TA1537, Metabolic Activation: NONE, Method: PREINCUBATION inactive; negative | Test System: AMES SALMONELLA TYPHIMURIUM, Strain/Indicator: TA1537, Metabolic Activation: RAT LIVER S-9, PHENOBARBITAL AND BETA-NAPHTHOFLAVONE, Method: PREINCUBATION inactive; negative | Test System: AMES SALMONELLA TYPHIMURIUM, Strain/Indicator: TA1537, Metabolic Activation: RAT, LIVER, S-9, PHENOBARBITAL AND 5,6-BENZOFLAVONE, Method: PREINCUBATION inactive; negative | Test System: AMES SALMONELLA TYPHIMURIUM, Strain/Indicator: TA1538, Metabolic Activation: NONE, Method: PREINCUBATION inactive; negative | Test System: AMES SALMONELLA TYPHIMURIUM, Strain/Indicator: TA1538, Metabolic Activation: RAT LIVER S-9, PHENOBARBITAL AND BETA-NAPHTHOFLAVONE, Method: PREINCUBATION inactive; negative | Test System: AMES SALMONELLA TYPHIMURIUM, Strain/Indicator: TA1538, Metabolic Activation: RAT, LIVER, S-9, PHENOBARBITAL AND 5,6-BENZOFLAVONE, Method: PREINCUBATION inactive; negative | Test System: AMES SALMONELLA TYPHIMURIUM, Strain/Indicator: TA2637, Metabolic Activation: NONE, Method: PREINCUBATION inactive; negative | Test System: E.COLI, Strain/Indicator: WP2UVRA, Metabolic Activation: NONE, Method: PREINCUBATION inactive; negative | Test System: E.COLI, Strain/Indicator: WP2UVRA, Metabolic Activation: RAT LIVER S-9, PHENOBARBITAL AND BETA-NAPHTHOFLAVONE, Method: PREINCUBATION inactive; negative

Cc1cc2c(C(C)C)c(O)c(O)c(C=O)c2c(O)c1-c1c(C)cc2c(C(C)C)c(O)c(O)c(C=O)c2c1O
inactive: [1] inactive; negative | Test System: AMES SALMONELLA TYPHIMURIUM, Strain/Indicator: TA98, Metabolic Activation: RAT, LIVER, S-9, AROCLOR 1254 OR PHENOBARBITAL, Method: STANDARD PLATE inactive; negative | [2] inactive; negative | Test System: AMES SALMONELLA TYPHIMURIUM, Strain/Indicator: TA100, Metabolic Activation: RAT, LIVER, S-9, AROCLOR 1254 OR PHENOBARBITAL, Method: STANDARD PLATE inactive; negative
